Reference: ChEMBL document CHEMBL3046694, “3D QSAR STUDIES OF INHIBITORS OF EPIDERMAL GROWTH FACTOR RECEPTOR [EGFR] USING CoMFA AND GFA METHODOLOGIES” (Med Chem Res, 2004)

The molecules below were run against Epidermal growth factor receptor (Homo sapiens, UniProt P00533) (assay: Inhibition of EGFR (unknown origin)).
Epidermal growth factor receptor, sequence (P00533 whole entry): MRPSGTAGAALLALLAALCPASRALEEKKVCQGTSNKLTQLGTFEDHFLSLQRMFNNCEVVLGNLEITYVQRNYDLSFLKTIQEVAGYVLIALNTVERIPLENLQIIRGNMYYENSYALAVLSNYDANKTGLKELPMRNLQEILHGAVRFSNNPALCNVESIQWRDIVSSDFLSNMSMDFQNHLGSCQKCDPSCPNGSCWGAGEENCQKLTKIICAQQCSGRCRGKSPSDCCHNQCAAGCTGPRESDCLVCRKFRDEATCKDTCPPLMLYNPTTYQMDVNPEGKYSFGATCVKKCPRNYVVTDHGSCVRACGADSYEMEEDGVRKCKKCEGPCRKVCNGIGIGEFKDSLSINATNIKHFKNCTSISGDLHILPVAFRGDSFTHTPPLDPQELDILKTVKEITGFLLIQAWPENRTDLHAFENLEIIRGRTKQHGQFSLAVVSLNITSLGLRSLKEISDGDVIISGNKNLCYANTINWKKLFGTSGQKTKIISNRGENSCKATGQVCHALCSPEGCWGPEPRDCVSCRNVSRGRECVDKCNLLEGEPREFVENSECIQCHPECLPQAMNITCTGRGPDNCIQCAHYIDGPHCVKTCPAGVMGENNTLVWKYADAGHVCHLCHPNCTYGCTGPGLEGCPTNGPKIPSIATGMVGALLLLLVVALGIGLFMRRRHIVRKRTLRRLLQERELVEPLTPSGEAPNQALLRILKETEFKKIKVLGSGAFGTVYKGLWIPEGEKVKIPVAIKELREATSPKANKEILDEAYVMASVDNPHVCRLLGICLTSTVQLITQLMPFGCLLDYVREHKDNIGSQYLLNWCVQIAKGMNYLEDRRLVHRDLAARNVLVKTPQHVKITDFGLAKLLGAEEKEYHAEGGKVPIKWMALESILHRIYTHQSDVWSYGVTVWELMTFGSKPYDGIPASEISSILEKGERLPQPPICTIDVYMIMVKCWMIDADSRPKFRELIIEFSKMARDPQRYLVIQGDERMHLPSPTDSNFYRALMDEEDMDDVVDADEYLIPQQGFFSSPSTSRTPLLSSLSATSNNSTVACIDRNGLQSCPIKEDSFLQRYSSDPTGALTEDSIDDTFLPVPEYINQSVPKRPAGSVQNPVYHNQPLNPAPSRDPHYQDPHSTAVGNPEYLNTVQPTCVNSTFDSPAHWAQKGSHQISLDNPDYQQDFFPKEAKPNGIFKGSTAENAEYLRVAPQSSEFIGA

In order of falling IC50:
1. COCC#CC(=O)Nc1ccc2ncc(C#N)c(Nc3cccc(Br)c3)c2c1  0.96 µM
2. CC#CC(=O)Nc1ccc2ncc(C#N)c(Nc3cccc(Br)c3)c2c1  0.94 µM
3. COCCOCC#CC(=O)Nc1ccc2ncc(C#N)c(Nc3cccc(Br)c3)c2c1  0.93 µM
4. C=CC(=O)Nc1cc2c(Nc3cccc(Br)c3)c(C#N)cnc2cc1OC  0.81 µM
5. COCC#CC(=O)Nc1cc2c(Nc3cccc(Br)c3)c(C#N)cnc2cc1OC  0.791 µM
6. COc1cc2ncc(C#N)c(Nc3cccc(Br)c3)c2cc1NC(=O)/C=C/CN(C)C  0.79 µM
7. CN(C)C/C=C/C(=O)Nc1ccc2ncc(C#N)c(Nc3ccc(F)c(Cl)c3)c2c1  0.65 µM
8. C=CC(=O)Nc1ccc2ncc(C#N)c(Nc3cccc(Br)c3)c2c1  0.59 µM
9. C=C(CN(C)C)C(=O)Nc1cc2c(Nc3ccc(F)c(Cl)c3)c(C#N)cnc2cc1OCC  0.56 µM
10. N#Cc1cnc2ccc(NC(=O)C#CCN3CCSCC3)cc2c1Nc1cccc(Br)c1  0.55 µM
11. CN(C)C/C=C/C(=O)Nc1ccc2ncc(C#N)c(Nc3cccc(Br)c3)c2c1  0.31 µM
12. CC#CC(=O)Nc1cc2c(Nc3cccc(Br)c3)c(C#N)cnc2cc1OC  0.19 µM
13. COC[C@@H]1CCCN1CC#CC(=O)Nc1ccc2ncc(C#N)c(Nc3cccc(Br)c3)c2c1  0.15 µM
14. CCCNCC#CC(=O)Nc1ccc2ncc(C#N)c(Nc3cccc(Br)c3)c2c1  0.13 µM
15. COc1cc2ncc(C#N)c(Nc3cccc(Br)c3)c2cc1NC(=O)C#CCN(C)C  0.09 µM
